Assays:
A20 [1] = test: AnnexinV/7-AAD staining; assay type: cell-based, mouse; conditions: A20, 10 µM, 24 h treatment
Experimental: (§1) Adherent cells (1 - 2*10^5) are 24 h prior to compound treatment seeded into 24 well tissue culture plates. Suspension cells are pipetted into P-tubes immediately before treatment. Test compounds are added leading to a final concentrations of 10 µM. After 24 h treatment cells are harvested (in case of adherent cells by trypsinization) and transferred to FACS tubes (BD Biosciences). After centrifugation and removal of the supernatant, 100 µl complete medium containing AnnexinV-GST (10 µg) is added, mixed and incubated at 4°C for 30 minutes. Subsequently, the cells are washed once with medium and incubated with 100 µl anti-GST Alexa 488 (Molecular Probes A-11131) in medium diluted 1:500 for 30 minutes at 4°C. Then, cells are washed once and stained with 1 µg/ml 7-aminoactinomycin D (7-AAD) (Molecular Probes A-1310) in 250 µl medium and analyzed on the FACSCalibur™. AnnexinV is measured in FL1 whereas 7-AAD is measured in FL3. In Table 5 the percentage of positively stained cells after treatment with the respective compounds are indicated. The following scores are used: Score 0 relates to less than 10%, score 1 relates to more than 10% but less than 50% and score 2 relates to more than 50% positivity.

A20 [2] = test: MTS proliferation assay; assay type: cell-based; conditions: Mus musculus, A20, 72 h incubation
Experimental: (§2) The assay is performed in 96 well tissue culture plates. The cells (range : 1.5*10^3-10^4) are seeded out in 80 µl complete medium 24 h prior to compound treatment. The test compounds are added in 20 µl complete medium containing max 5% DMSO. The final compound concentrations in the assays are 10 µM, 3 µM,1 µM and 0.3 µM, respectively. The assay plates are incubated for 72 h at culture conditions. The MTS reagent is prepared according to the manufacturer's protocol (Promega G1111 ). 20 µl MTS reagent are added to each well, the assay plates are quickly spun and incubated for another 3 h at culture conditions. Subsequently, the plates are shortly shaked and absorption measured with a microplate-reader at 492 nm.

HeLa [3] = test: MTS proliferation assay; assay type: cell-based; conditions: Homo sapiens, 72 h incubation
Experimental: as §2

K562 [4] = test: MTS proliferation assay; assay type: cell-based; conditions: Homo sapiens, K562, 72 h incubation
Experimental: as §2

Jurkat [5] = test: PI staining for cell cycle distribution; assay type: cell-based, human; set-up: key: 0 indicates no occurrence at all; 1 for weak; 2 for strong occurrence; conditions: Jurkat 3 uM, 24 h
Experimental: (§3) 1 - 2*10^5 cells are seeded into 24 well tissue culture plates and incubated for 24 h prior to compound addition. Compounds are added for 24 h in a final concentration of 3 µM or 10 µM. Adherent cells are harvested by trypsinization. The cell suspensions are fixed by adding 2 parts ice cold ethanol 100% while vortexing. Then the samples are stored for > 2 h at-20°C. Subsequently the cells are washed with PBS once and resuspended in 250 µl PBS containing 50 µg/ml PI (Calbiochem # 537059), then the samples are incubated at 37°C for 30 minutes and subsequently analyzed on a FACSCalibur™ monitoring linear PI fluorescence activity on FL2.. The readout allows the detection of a possible direct or indirect influence of the tested compounds on the cell cycle. The following events can occur: a) Generation of a subG1 peak indicative for DNA fragmentation, b) increase of the cell population arrested in G2M phase. Both events are scored by 1 for weak and 2 for strong occurrence. 0 indicates no occurrence at all. […]

HeLa [6] = test: PI staining for cell cycle distribution; assay type: cell-based, human; set-up: key: 0 indicates no occurrence at all; 1 for weak; 2 for strong occurrence; conditions: HeLa 10 µM, 24 h
Experimental: as §3

Jurkat [7] = test: Hoechst 33342 nuclear staining (Table 3); assay type: cell-based, human; set-up: key: 0 relating to no activity; 1 relating to weak activity comprising less than 50% of the cells; score 2 relating to strong activity comprising more than 50% of the cells
Experimental: (§4) This assay is performed in 96 well tissue culture plates. Appropriate number of cells (adherent cells: 3 - 5*10^3, suspension cells: 8 - 10*10^3) are being seeded out in 80 µl complete medium. Adherent cells are incubated for 24 h for proper spreading out before addition of test compounds while suspension cells are immediately treated with test compounds after seeding out. The test compounds are added in 20 µl complete medium containing max 5% DMSO. The final compound concentrations in the assays are 10 µM, 3 µM,1 µM and 0.3 µM, respectively. After 24 h or 48 h incubation at culture conditions, 10 µl medium containing Hoechst 33342 dye (Sigma B-2261) at 2-5 µg/ml are added to each well. The assay plates are then further incubated for 30 minutes and subsequently analyzed with a standard inverted fluorescence microscope. The readout allows the determination of the fraction of apoptotic nuclei as well as other morphological criteria specific for apoptosis as a function of the treatment. The following scores are used: 0 relating to no activity, 1 relating to weak activity comprising less than 50% of the cells and score 2 relating to strong activity comprising more than 50% of the cells.

HeLa [8] = test: Hoechst 33342 nuclear staining (Table 3); assay type: cell-based, human; set-up: key: 0 relating to no activity; 1 relating to weak activity comprising less than 50% of the cells; score 2 relating to strong activity comprising more than 50% of the cells
Experimental: as §4

KB = test: Hoechst 33342 nuclear staining (Table 3); assay type: cell-based, human; set-up: key: 0 relating to no activity; 1 relating to weak activity comprising less than 50% of the cells; score 2 relating to strong activity comprising more than 50% of the cells
Experimental: as §4

K562 [9] = test: Hoechst 33342 nuclear staining (Table 3); assay type: cell-based, human; set-up: key: 0 relating to no activity; 1 relating to weak activity comprising less than 50% of the cells; score 2 relating to strong activity comprising more than 50% of the cells
Experimental: as §4

Jurkat [10] = test: AnnexinV/7-AAD staining; assay type: cell-based, human; conditions: 10 µM, 24 h treatment
Experimental: as §1

HeLa [11] = test: AnnexinV/7-AAD staining; assay type: cell-based, human; conditions: 10 µM, 24 h treatment
Experimental: as §1

Ramos = test: AnnexinV/7-AAD staining; assay type: cell-based, human; conditions: 10 µM, 24 h treatment
Experimental: as §1

IC50 (HeLa [3]): 1 to 10 µM | IC50 (K562 [4]): > 10 µM
Structure (SMILES): COc1cc2c(cc1OC)-c1cc3nc4ccccc4nc3n1C(C)C2 (stereo not drawn) [compound 8]
percentage of positively stained cells (AnnexinV/7-AAD staining) (A20 [1]): 0 (Score 0 relates to less than 10%) | IC50 (A20 [2]): 1 to 10 µM | G2M (increase of the cell population arrested in G2M phase) (Jurkat [5]): 0 | subG1 (generation of a subG1 peak indicative for DNA fragmentation) (Jurkat [5]): 1 | G2M (increase of the cell population arrested in G2M phase) (HeLa [6]): 0 | subG1 (generation of a subG1 peak indicative for DNA fragmentation) (HeLa [6]): 1 | Hoechst 33342 nuclear staining (Jurkat [7]; 24h, conc 0.3 (µM)): 1 (1 relating to weak activity comprising less than 50% of the cells) | Hoechst 33342 nuclear staining (Jurkat [7]; 24h, conc 1 (µM)): 1 (1 relating to weak activity comprising less than 50% of the cells) | Hoechst 33342 nuclear staining (Jurkat [7]; 24h, conc 3 (µM)): 2 (score 2 relating to strong activity comprising more than 50% of the cells) | Hoechst 33342 nuclear staining (Jurkat [7]; 24h, conc 10 (µM)): 2 (score 2 relating to strong activity comprising more than 50% of the cells) | Hoechst 33342 nuclear staining (Jurkat [7]; 48h, conc 0.3 (µM)): 1 (1 relating to weak activity comprising less than 50% of the cells) | Hoechst 33342 nuclear staining (Jurkat [7]; 48h, conc 1 (µM)): 2 (score 2 relating to strong activity comprising more than 50% of the cells) | Hoechst 33342 nuclear staining (Jurkat [7]; 48h, conc 3 (µM)): 2 (score 2 relating to strong activity comprising more than 50% of the cells) | Hoechst 33342 nuclear staining (Jurkat [7]; 48h, conc 10 (µM)): 2 (score 2 relating to strong activity comprising more than 50% of the cells) | Hoechst 33342 nuclear staining (HeLa [8]; 24h, conc 0.3 (µM)): 0 | Hoechst 33342 nuclear staining (HeLa [8]; 24h, conc 1 (µM)): 0 | Hoechst 33342 nuclear staining (HeLa [8]; 24h, conc 3 (µM)): 0 | Hoechst 33342 nuclear staining (HeLa [8]; 24h, conc 10 (µM)): 0 | Hoechst 33342 nuclear staining (HeLa [8]; 48h, conc 0.3 (µM)): 0 | Hoechst 33342 nuclear staining (HeLa [8]; 48h, conc 1 (µM)): 0 | Hoechst 33342 nuclear staining (HeLa [8]; 48h, conc 3 (µM)): 1 (1 relating to weak activity comprising less than 50% of the cells) | Hoechst 33342 nuclear staining (HeLa [8]; 48h, conc 10 (µM)): 2 (score 2 relating to strong activity comprising more than 50% of the cells) | Hoechst 33342 nuclear staining (KB; 24h, conc 0.3 (µM)): 0 | Hoechst 33342 nuclear staining (KB; 24h, conc 1 (µM)): 0 | Hoechst 33342 nuclear staining (KB; 24h, conc 3 (µM)): 0 | Hoechst 33342 nuclear staining (KB; 24h, conc 10 (µM)): 0 | Hoechst 33342 nuclear staining (KB; 48h, conc 0.3 (µM)): 0 | Hoechst 33342 nuclear staining (KB; 48h, conc 1 (µM)): 0 | Hoechst 33342 nuclear staining (KB; 48h, conc 3 (µM)): 0 | Hoechst 33342 nuclear staining (KB; 48h, conc 10 (µM)): 0 | Hoechst 33342 nuclear staining (K562 [9]; K562, 24h, conc 0.3 (µM)): 0 | Hoechst 33342 nuclear staining (K562 [9]; K562, 24h, conc 1 (µM)): 0 | Hoechst 33342 nuclear staining (K562 [9]; K562, 24h, conc 3 (µM)): 0 | Hoechst 33342 nuclear staining (K562 [9]; K562, 48h, conc 0.3 (µM)): 0 | Hoechst 33342 nuclear staining (K562 [9]; K562, 48h, conc 1 (µM)): 2 (score 2 relating to strong activity comprising more than 50% of the cells) | Hoechst 33342 nuclear staining (K562 [9]; K562, 48h, conc 3 (µM)): 2 (score 2 relating to strong activity comprising more than 50% of the cells) | Hoechst 33342 nuclear staining (K562 [9]; K562, 48h, conc 10 (µM)): 2 (score 2 relating to strong activity comprising more than 50% of the cells) | percentage of positively stained cells (AnnexinV/7-AAD staining) (Jurkat [10]): 0 (Score 0 relates to less than 10%) | percentage of positively stained cells (AnnexinV/7-AAD staining) (HeLa [11]): 1 (score 1 relates to more than 10% but less than 50%) | percentage of positively stained cells (AnnexinV/7-AAD staining) (Ramos): 0 (Score 0 relates to less than 10%)
